# Measurements reported in PubChem BioAssay (NCI).
#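 GI50: concentration for 50% inhibition of growth. TGI: total growth inhibition.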
# What was measured:
# Test in all cases: NCI tumour cell line growth inhibition, 384-well format
# [1] = test system: SR leukemia
# [2] = test system: SN12C renal
# [3] = test system: BT-549 breast
# [4] = test system: A549 NSCLC
# [5] = test system: EKVX NSCLC
# [6] = test system: SF-539 CNS
# [7] = test system: 786-0 renal
# [8] = test system: NCI/ADR-RES ovarian
# [9] = test system: A498 renal
# [10] = test system: TK-10 renal
# [11] = test system: T-47D breast
# [12] = test system: OVCAR-3 ovarian
# [13] = test system: UO-31 renal
# [14] = test system: M14 melanoma
# [15] = test system: ACHN renal
# [16] = test system: RXF 393 renal
# [17] = test system: SK-OV-3 ovarian
# [18] = test system: NCI-H322M lung
# [19] = test system: HL-60(TB) leukemia
# [20] = test system: SNB-19 CNS
# [21] = test system: CAKI-1 renal
# [22] = test system: SNB-75 CNS
# [23] = test system: MDA-MB-231 breast
# [24] = test system: NCI-H23 lung
# [25] = test system: HS 578T breast
# [26] = test system: HOP-62 NSCLC
# [27] = test system: KM12 colon
# [28] = test system: HOP-92 NSCLC
# [29] = test system: MDA-MB-435 melanoma
# [30] = test system: HCT-116 colon
# [31] = test system: OVCAR-8 ovarian
# [32] = test system: HT29 colon
# [33] = test system: OVCAR-5 ovarian
# [34] = test system: SK-MEL-28 melanoma
# [35] = test system: NCI-H522 lung
# [36] = test system: DU-145 prostate
# [37] = test system: OVCAR-4 ovarian
# [38] = test system: MDA-MB-468 breast
# [39] = test system: SF-295 CNS
# [40] = test system: U251 glioblastoma
# [41] = test system: SK-MEL-5 melanoma
# [42] = test system: SF-268 CNS
# [43] = test system: NCI-H226 lung
# [44] = test system: SW-620 colon
# [45] = test system: HCC-2998 colon
# [46] = test system: NCI-H460 NSCLC
# [47] = test system: MCF7 breast
# [48] = test system: LOX IMVI melanoma
# [49] = test system: MALME-3M melanoma
# [50] = test system: PC-3 prostate
# [51] = test system: IGROV1 ovarian
# [52] = test system: MOLT-4 leukemia
# [53] = test system: HCT-15 colon
# [54] = test system: UACC-62 melanoma
# [55] = test system: COLO 205 colon
# [56] = test system: RPMI-8226 leukemia
# [57] = test system: UACC-257 melanoma
smiles,measurement,setting,value
COc1nc(N)nc2c1ncn2[C@@H]1O[C@H](CO)[C@@H](O)[C@@H]1O,GI50,[1],> 100 µM
same,TGI,[1],> 100 µM
same,GI50,[2],> 100 µM
same,TGI,[2],> 100 µM
same,GI50,[3],> 100 µM
same,TGI,[3],> 100 µM
same,GI50,[4],> 100 µM
same,TGI,[4],> 100 µM
same,GI50,[5],> 100 µM
same,TGI,[5],> 100 µM
same,GI50,[6],> 100 µM
same,TGI,[6],> 100 µM
same,GI50,[7],> 100 µM
same,TGI,[7],> 100 µM
same,GI50,[8],> 100 µM
same,TGI,[8],> 100 µM
same,GI50,[9],> 100 µM
same,TGI,[9],> 100 µM
same,GI50,[10],> 100 µM
same,TGI,[10],> 100 µM
same,GI50,[11],> 100 µM
same,TGI,[11],> 100 µM
same,GI50,[12],> 100 µM
same,TGI,[12],> 100 µM
same,GI50,[13],> 100 µM
same,TGI,[13],> 100 µM
same,GI50,[14],> 100 µM
same,TGI,[14],> 100 µM
same,GI50,[15],> 100 µM
same,TGI,[15],> 100 µM
same,GI50,[16],> 100 µM
same,TGI,[16],> 100 µM
same,GI50,[17],> 100 µM
same,TGI,[17],> 100 µM
same,GI50,[18],> 100 µM
same,TGI,[18],> 100 µM
same,GI50,[19],> 100 µM
same,TGI,[19],> 100 µM
same,GI50,[20],> 100 µM
same,TGI,[20],> 100 µM
same,GI50,[21],> 100 µM
same,TGI,[21],> 100 µM
same,GI50,[22],> 100 µM
same,TGI,[22],> 100 µM
same,GI50,[23],> 100 µM
same,TGI,[23],> 100 µM
same,GI50,[24],> 100 µM
same,TGI,[24],> 100 µM
same,GI50,[25],> 100 µM
same,TGI,[25],> 100 µM
same,GI50,[26],> 100 µM
same,TGI,[26],> 100 µM
same,GI50,[27],> 100 µM
same,TGI,[27],> 100 µM
same,GI50,[28],> 100 µM
same,TGI,[28],> 100 µM
same,GI50,[29],> 100 µM
same,TGI,[29],> 100 µM
same,GI50,[30],> 100 µM
same,TGI,[30],> 100 µM
same,GI50,[31],> 100 µM
same,TGI,[31],> 100 µM
same,GI50,[32],> 100 µM
same,TGI,[32],> 100 µM
same,GI50,[33],> 100 µM
same,TGI,[33],> 100 µM
same,GI50,[34],> 100 µM
same,TGI,[34],> 100 µM
same,GI50,[35],> 100 µM
same,TGI,[35],> 100 µM
same,GI50,[36],> 100 µM
same,TGI,[36],> 100 µM
same,GI50,[37],> 100 µM
same,TGI,[37],> 100 µM
same,GI50,[38],> 100 µM
same,TGI,[38],> 100 µM
same,GI50,[39],> 100 µM
same,TGI,[39],> 100 µM
same,GI50,[40],> 100 µM
same,TGI,[40],> 100 µM
same,GI50,[41],> 100 µM
same,TGI,[41],> 100 µM
same,GI50,[42],> 100 µM
same,TGI,[42],> 100 µM
same,GI50,[43],> 100 µM
same,TGI,[43],> 100 µM
same,GI50,[44],> 100 µM
same,TGI,[44],> 100 µM
same,GI50,[45],> 100 µM
same,TGI,[45],> 100 µM
same,GI50,[46],> 100 µM
same,TGI,[46],> 100 µM
same,GI50,[47],> 100 µM
same,TGI,[47],> 100 µM
same,GI50,[48],> 100 µM
same,TGI,[48],> 100 µM
same,GI50,[49],> 100 µM
same,TGI,[49],> 100 µM
same,GI50,[50],> 100 µM
same,TGI,[50],> 100 µM
same,GI50,[51],> 100 µM
same,TGI,[51],> 100 µM
same,GI50,[52],1.31 µM
same,TGI,[52],2.59 µM
same,GI50,[53],> 100 µM
same,TGI,[53],> 100 µM
same,GI50,[54],> 100 µM
same,TGI,[54],> 100 µM
same,GI50,[55],> 100 µM
same,TGI,[55],> 100 µM
same,GI50,[56],> 100 µM
same,TGI,[56],> 100 µM
same,GI50,[57],> 100 µM
same,TGI,[57],> 100 µM
